Each compound was assayed on synthesis of 5-HETE by rat glycogen-elicited polymorphonuclear leukocytes (lipoxygenase) (assay: inhibition of 5-HETE synthesis by rat glycogen-elicited polymorphonuclear leukocytes). Conditions: Leukocyte; rat PMN, A23187 10 μM, [14C] arachidonic acid, 37° C.; read-out: 50% Inhibitory Concentration (IC50) 5-HETE.
Type: cell-based, rat (Wistar)
Description: (§1) This is especially true with respect to 5,12-diHETE, which is also denoted as LTB4 [see Ford-Hitchinson, J. Roy. Soc. Med., 74, 831 (1981)]. The assay of this Example measures the ability of the compounds of the invention to inhibit the synthesis of 5-HETE and LTB4 by rat glycogen-elicited polymorphonuclear leukocytes.
(§2) The assay is carried out as follows:
(§3) Peritoneal PMN are obtained from female Wistar rats (150-250 g) that received an i.p. injection of 6% glycogen (10 ml). After 24 hours, rats are killed by CO2 asphyxiation and peritoneal cells are harvested by peritoneal lavage using Ca^++ and Mg^++ free Hanks' balanced salt solution (HBSS). The peritoneal exudate is centrifuged at 400 g for 10 minutes. After centrifugation, the lavaged fluid is removed and the cell pellet is resuspended in HBSS containing Ca^++ and Mg^++ and 10 mM L-cysteine at a concentration of 2×10^7 cells/ml. To 1 ml portions of cell suspension, test drugs or vehicle are added and incubated at 37° C. for 10 minutes. Following this preincubation, the calcium ionophore (10 μM), A23187, is added together with 0.5 μCi [^14 C] arachidonic acid and further incubated for 10 minutes. The reaction is stopped by the addition of ice cold water (3 ml) and acidifying to pH 3.5. Lipoxygenase products are then extracted twice into diethyl ether. The pooled ether extracts are evaporated to dryness under nitrogen and the residue is redissolved in a small volume of methanol and spotted on aluminum backed pre-coated thin layer chromatographic plates. The samples are then co-chromatographed with authentic reference 5-HETE, 12-HETE and 5,12-diHETE in the solvent system-hexane:ether:acetic acid (50:50:3). After chromatography, the areas associated with 5-HETE and 5,12-diHETE standards are identified by autoradiography, cut out and quantitated by liquid scintillation.
(§4) Results are expressed as % inhibition of [^14 C]5-HETE and [^14 C]LTB4 (5,12-HETE) synthesis. [formula]
(§5) Testing compounds of the invention in this assay and using the antioxident 3-amino-1-[m-(trifluoromethyl)phenyl]-2-pyrazoline (BW755C) as a standard, the following results are obtained.

IC50 [µM] | Compound
43 | NC1=NN(c2cccc(C(F)(F)F)c2)CC1 [BW755C, 3-amino-1-[m-(trifluoromethyl)phenyl]-2-pyrazoline, reference compound]
15.7 | COC(=O)CCC(=O)Nc1cccc(OCc2nc3ccccc3s2)c1 [Example 1, 4-[[3-[(2-benzthiazolyl)methoxy]phenyl]amino]-4-oxobutanoic acid, methyl ester]
69.7 | COC(=O)CCC(=O)Nc1cccc(OCc2nc3ccccc3o2)c1 [Example 2a, 4-[[3-[(2-benzoxazolyl)methoxy]phenyl]amino]-4-oxobutanoic acid, methyl ester]
17.9 | COC(=O)CCC(=O)Nc1cccc(OCc2cc3ccccc3o2)c1 [Example 3, 4-[[3-[(2-benzofuranyl)methoxy]phenyl]amino]-4-oxobutanoic acid, methyl ester]
0.36 | COC(=O)CCC(=O)N(O)c1cccc(OCc2nc3ccccc3s2)c1 [Example 6, 4-[[3-[(2-benzthiazolyl)methoxy]phenyl]hydroxylamino]-4-oxobutanoic acid, methyl ester]

These compounds were tested on synthesis of LTB4 by rat glycogen-elicited polymorphonuclear leukocytes (lipoxygenase) (assay: inhibition of LTB4 (5,12-diHETE) synthesis by rat glycogen-elicited polymorphonuclear leukocytes). Conditions: Leukocyte; rat PMN, A23187 10 μM, [14C] arachidonic acid, 37° C.; read-out: 50% Inhibitory Concentration (IC50) LTB4.
Type: cell-based, rat (Wistar)
Description: as §1, §2, §3, §4, §5

IC50 [µM] | Compound
30 | NC1=NN(c2cccc(C(F)(F)F)c2)CC1 [BW755C, 3-amino-1-[m-(trifluoromethyl)phenyl]-2-pyrazoline, reference compound]
26 | COC(=O)CCC(=O)Nc1cccc(OCc2nc3ccccc3s2)c1 [Example 1, 4-[[3-[(2-benzthiazolyl)methoxy]phenyl]amino]-4-oxobutanoic acid, methyl ester]
65.5 | COC(=O)CCC(=O)Nc1cccc(OCc2nc3ccccc3o2)c1 [Example 2a, 4-[[3-[(2-benzoxazolyl)methoxy]phenyl]amino]-4-oxobutanoic acid, methyl ester]
27.3 | COC(=O)CCC(=O)Nc1cccc(OCc2cc3ccccc3o2)c1 [Example 3, 4-[[3-[(2-benzofuranyl)methoxy]phenyl]amino]-4-oxobutanoic acid, methyl ester]
0.49 | COC(=O)CCC(=O)N(O)c1cccc(OCc2nc3ccccc3s2)c1 [Example 6, 4-[[3-[(2-benzthiazolyl)methoxy]phenyl]hydroxylamino]-4-oxobutanoic acid, methyl ester]

Each compound was assayed on LTD4 induced bronchoconstriction (assay: in vivo inhibition of bronchospasm induced in guinea pigs by exogenously administered LTD4). Conditions: 50 mg/kg intraduodenal, 10 minutes before LTD4; average of 6 experiments; 3 min.
Design: species or system guinea pig (male Hartley)
Description: The assay of this Example measures the in vivo ability of the compounds of the invention to inhibit the bronchospasm induced in guinea pigs by the exogenously administered leukotrienes C4 and/or D4. This assay is essentially a measure of the SRS-A antagonist properties of the compounds tested.
This assay is carried out as follows:
Male Hartley strain guinea pigs (350-600 g) are anesthetized with pentobarbital sodium (50 mg/kg, i.p.). The jugular vein is cannulated for injection of drugs and the carotid artery for monitoring blood prerssure. The trachea is cannulated for artificial ventilation by a miniature Starling pump and for indirect measurement of respiratory volume changes as described infra. Additional pentobarbital sodium (15 mg/kg, i.v.) is administered to arrest spontaneous respiration. Submaximal bronchoconstrictor responses are established in control animals by varying the dose-levels of leukotriene. Intravenous dose-levels of LTC4 range from 1 to 2 μg/kg and for LTD4 the range is from 0.3 to 1 μg/kg. The aerosol bronchoprovocation dose for LTC4 is generated from 1.6 μM solution and for LTD4 from a 2.0 μM solution.
Test drugs are administered either intravenously, by aerosol or orally at 1 or 10 minutes before induction of bronchospasm by administration of either LTC4 or LTD4 at the predetermined dose-levels. Aerosols of soluble drugs or leukotrienes are produced in-line for 10 seconds only by actuation of an ultrasonic nebulizer (Monaghan). Aerosolized drug dosage is expressed in terms of solution concentration and by a fixed aerosol exposure time (approximately 10 seconds). Control animals receive saline in place of drug.
Respiratory volume changes are determined by a calibrated piston whose travel is recorded, via a linear transducer, on a Beckman Dynograph recorder. Maximal bronchoconstrictor volume is determined by clamping off the trachea at the end of the experiment. Overflow volumes at 3 and 5 minutes are obtained from the recorded charts.
The overflow volume at 3 and 5 minutes is expressed as a percentage of maximal bronchoconstriction. Combined group values are used from each of these time intervals to determine the inhibitory effect of drugs. [formula] Students t-test for unpaired data is used to determine statistical significance. Dose response curves are generated and ED50 doses are interpolated from the regression lines.
Results for compounds of the invention in this assay, using LTD4 for induction of bronchospasm, are given below: […]

Compound | % Inhibition (Statistical Average), Overflow Volume at 3 min. [%]
COC(=O)CCC(=O)Nc1cccc(OCc2nc3ccccc3s2)c1 [Example 1, 4-[[3-[(2-benzthiazolyl)methoxy]phenyl]amino]-4-oxobutanoic acid, methyl ester] | 33
COC(=O)CCC(=O)Nc1cccc(OCc2nc3ccccc3n2C)c1 [Example 2b, 4-[[3-[(1-methyl-2-benzimidazolyl)methoxy]phenyl]amino]-4-oxobutanoic acid, methyl ester] | 82
COC(=O)CC(=O)Nc1cccc(OCc2nc3ccccc3s2)c1 [Example 2c, 3-[[3-[(2-benzthiazolyl)methoxy]phenyl]amino]-3-oxopropanoic acid, methyl ester] | 77
COC(=O)CC(=O)Nc1cccc(OCc2nc3ccccc3n2C)c1 [Example 2d, 3-[[3-[(1-methyl-2-benzimidazolyl)methoxy]phenyl]amino]-3-oxopropanoic acid, methyl ester] | 62
COC(=O)CCC(=O)N(O)c1cccc(OCc2nc3ccccc3s2)c1 [Example 6, 4-[[3-[(2-benzthiazolyl)methoxy]phenyl]hydroxylamino]-4-oxobutanoic acid, methyl ester] | 78

Same assay, conditions: 50 mg/kg intraduodenal, 10 minutes before LTD4; average of 6 experiments; 5 min.

Compound | % Inhibition (Statistical Average), Overflow Volume at 5 min. [%]
COC(=O)CCC(=O)Nc1cccc(OCc2nc3ccccc3s2)c1 [Example 1, 4-[[3-[(2-benzthiazolyl)methoxy]phenyl]amino]-4-oxobutanoic acid, methyl ester] | 41
COC(=O)CCC(=O)Nc1cccc(OCc2nc3ccccc3n2C)c1 [Example 2b, 4-[[3-[(1-methyl-2-benzimidazolyl)methoxy]phenyl]amino]-4-oxobutanoic acid, methyl ester] | 82
COC(=O)CC(=O)Nc1cccc(OCc2nc3ccccc3s2)c1 [Example 2c, 3-[[3-[(2-benzthiazolyl)methoxy]phenyl]amino]-3-oxopropanoic acid, methyl ester] | 76
COC(=O)CC(=O)Nc1cccc(OCc2nc3ccccc3n2C)c1 [Example 2d, 3-[[3-[(1-methyl-2-benzimidazolyl)methoxy]phenyl]amino]-3-oxopropanoic acid, methyl ester] | 59
COC(=O)CCC(=O)N(O)c1cccc(OCc2nc3ccccc3s2)c1 [Example 6, 4-[[3-[(2-benzthiazolyl)methoxy]phenyl]hydroxylamino]-4-oxobutanoic acid, methyl ester] | 78

What follows are compounds tested on ovalbumin induced bronchospasm mediated by endogenous products of the lipoxygenase oxidation of arachidonic acid (assay: in vivo inhibition of ovalbumin induced bronchospasm in sensitized guinea pigs (endogenous mediators)). Conditions: 50 mg/kg intraduodenal, 10 minutes before ovalbumin challenge; average of 6 experiments; 3 min.
Design: species or system guinea pig (male Hartley)

Compound | % Inhibition (Statistical Average), Overflow Volume at 3 min. [%]
COC(=O)CCC(=O)Nc1cccc(OCc2nc3ccccc3s2)c1 [Example 1, 4-[[3-[(2-benzthiazolyl)methoxy]phenyl]amino]-4-oxobutanoic acid, methyl ester] | 68
COC(=O)CCC(=O)Nc1cccc(OCc2nc3ccccc3n2C)c1 [Example 2b, 4-[[3-[(1-methyl-2-benzimidazolyl)methoxy]phenyl]amino]-4-oxobutanoic acid, methyl ester] | 54

Same assay, conditions: 50 mg/kg intraduodenal, 10 minutes before ovalbumin challenge; average of 6 experiments; 5 min.

Compound | % Inhibition (Statistical Average), Overflow Volume at 5 min. [%]
COC(=O)CCC(=O)Nc1cccc(OCc2nc3ccccc3s2)c1 [Example 1, 4-[[3-[(2-benzthiazolyl)methoxy]phenyl]amino]-4-oxobutanoic acid, methyl ester] | 49
COC(=O)CCC(=O)Nc1cccc(OCc2nc3ccccc3n2C)c1 [Example 2b, 4-[[3-[(1-methyl-2-benzimidazolyl)methoxy]phenyl]amino]-4-oxobutanoic acid, methyl ester] | 49

— patent US4594425A, “Heterocyclic compounds as antiallergic agents” (American Home Products Corporation, priority 1984, dated 1986)
